Where a SMILES comes first, the peptide text is derived from it. [ ]: non-standard residue; d: D form. Thr(SO3H) = C[C@@H](OS(=O)(=O)O)[C@H](N)C(=O)O; sY = N[C@@H](Cc1ccc(OS(=O)(=O)O)cc1)C(=O)O; NMeF = CN[C@@H](Cc1ccccc1)C(=O)O; Nle = CCCC[C@H](N)C(=O)O
Experiments:
Bovine Striatum = target: T1, Bovine Striatum (Bos taurus, UniProt P79266); test: In vitro receptor binding assay, inhibition of ³H-CCK-8-(SO₃H) binding to bovine striatum homogenate; conditions: ³H-CCK-8-(SO₃H) 0.15 nM, 30 min at 25° C; read-out: Bovine Striatum (IC₅₀ value)
T1 construct: tissue homogenate (striatum 0.26 mg protein in 2 ml final volume); from tissue; host or cells: bovine striatum homogenate (membrane pellet)
T1 sequence (P79266 1-454): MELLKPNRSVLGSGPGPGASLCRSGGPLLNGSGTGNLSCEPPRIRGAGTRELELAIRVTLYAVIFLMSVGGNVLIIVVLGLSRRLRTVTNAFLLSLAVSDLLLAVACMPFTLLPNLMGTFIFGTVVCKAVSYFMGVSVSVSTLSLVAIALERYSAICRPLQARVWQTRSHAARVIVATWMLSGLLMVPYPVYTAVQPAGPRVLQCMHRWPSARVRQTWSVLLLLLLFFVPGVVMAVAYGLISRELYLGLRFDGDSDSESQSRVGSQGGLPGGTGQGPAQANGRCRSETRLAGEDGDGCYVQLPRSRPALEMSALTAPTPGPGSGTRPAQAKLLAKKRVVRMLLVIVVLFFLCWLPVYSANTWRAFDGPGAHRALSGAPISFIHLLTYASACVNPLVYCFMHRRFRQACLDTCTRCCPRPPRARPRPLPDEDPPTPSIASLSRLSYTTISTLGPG
Method: (§1) The tissue was homogenized 2 x for approx. 15 sec. at 0°C using a Polytron homogenizer at a setting of 6. The tissue was isolated by centrifugation at 48,000 x g for 10 min. at 0°C. […] Samples were incubated for 30 min. at 25° C and the incubation terminated by pouring the mixture onto a pre-wet Whatman GF/B filter on a Sandbeck Vacuum Filtration Manifold. The incubation tubes were washed with 2 x 3 ml of ice-cold HEPES Buffer #2 and the wash filtered through the GF/B filter. The filter was air dried for 10 min. and then placed in a scintillation vial with 12 ml of Beckman HP/b Ready-Solv scintillation cocktail. The vials were shaken for 2 hours and then counted using a Beckman Model 7800 liquid scintillation spectrometer.

Rat Pancreas = target: T2, Rat Pancreas (Rattus norvegicus, UniProt P30551); test: In vitro receptor binding assay, inhibition of ³H-CCK-8-(SO₃H) binding to rat pancreas homogenate; conditions: ³H-CCK-8-(SO₃H) 0.15 nM, 30 min at 25° C; read-out: Rat Pancreas (IC₅₀ value)
T2 construct: pancreas 0.165 mg protein in 1 ml final volume; from tissue; host or cells: rat pancreas homogenate (membrane pellet)
T2 sequence (P30551 1-444): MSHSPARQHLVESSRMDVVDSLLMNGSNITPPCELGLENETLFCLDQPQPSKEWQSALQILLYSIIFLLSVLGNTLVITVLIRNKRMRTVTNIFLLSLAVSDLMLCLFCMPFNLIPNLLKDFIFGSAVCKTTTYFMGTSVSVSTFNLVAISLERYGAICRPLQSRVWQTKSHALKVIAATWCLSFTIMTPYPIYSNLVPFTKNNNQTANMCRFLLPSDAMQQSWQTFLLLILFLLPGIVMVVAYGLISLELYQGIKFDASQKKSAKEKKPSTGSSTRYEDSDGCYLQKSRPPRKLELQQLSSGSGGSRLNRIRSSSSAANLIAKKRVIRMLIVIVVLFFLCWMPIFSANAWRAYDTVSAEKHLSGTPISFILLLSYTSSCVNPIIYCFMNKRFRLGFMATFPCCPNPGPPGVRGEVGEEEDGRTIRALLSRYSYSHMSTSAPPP
Method: as §1

IC50 (Bovine Striatum) [nM] | IC50 (Rat Pancreas) [nM] | Structure (SMILES)
245 | 0.14 | CCCC[C@H](NC(=O)[C@H](Cc1ccc(OS(=O)(=O)O)cc1)NC(C)=O)C(=O)NCC(=O)N[C@@H](Cc1c[nH]c2ccccc12)C(=O)N[C@@H](CCCC)C(=O)N[C@H](C(=O)N(C)[C@@H](Cc1ccccc1)C(N)=O)[C@@H](C)OS(=O)(=O)O [Example 1, Ac-Tyr(SO₃H)-Nle-Gly-Trp-Nle-Thr(SO₃H)-N-methyl-Phe-NH₂] (Ac-[sY][Nle]GW[Nle][Thr(SO3H)][NMeF]-NH2)
1600 | 70 | CSCC[C@H](NC(=O)[C@H](Cc1c[nH]c2ccccc12)NC(=O)CNC(=O)[C@H](Cc1ccc(OS(=O)(=O)O)cc1)NC(C)=O)C(=O)N[C@H](C(=O)N(C)[C@@H](Cc1ccccc1)C(N)=O)[C@@H](C)OS(=O)(=O)O [Example 2, Ac-Tyr(SO₃H)-Gly-Trp-Met-Thr(SO₃H)-N-methyl-Phe-NH₂] (Ac-[sY]GWM[Thr(SO3H)][NMeF]-NH2)
1 to 3.2 | 1 to 4.6 | CSCC[C@H](NC(=O)[C@H](Cc1ccc(OS(=O)(=O)O)cc1)NC(=O)[C@@H](N)CC(=O)O)C(=O)NCC(=O)N[C@@H](Cc1c[nH]c2ccccc12)C(=O)N[C@@H](CCSC)C(=O)N[C@@H](CC(=O)O)C(=O)N[C@@H](Cc1ccccc1)C(N)=O [CCK-8, reference compound]
